Results published in ChEMBL document CHEMBL1201862, “PubChem BioAssay data set” (2004).
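Tested at 5 concentrations; 48 h exposure; 96-well plates; endpoints linearly interpolated, else capped at highest concentration. The concentration for 50% growth inhibition is given as GI50.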 The source made the active and inactive calls. Rule as the data show it: active = GI50 up to about 1.1 µM and inactive = higher.

Columns and labels:
Assay in all cases: growth of human tumour cells (NCI), 48 h
HOP-62 = tested on: HOP-62
UO-31 = tested on: UO-31
SK-MEL-28 = tested on: SK-MEL-28
SF-539 = tested on: SF-539
NCI-H23 = tested on: NCI-H23
TK-10 = tested on: TK-10
SK-OV-3 = tested on: SK-OV-3
OVCAR-4 = tested on: OVCAR-4
MOLT-4 = tested on: MOLT-4
COLO 205 = tested on: COLO 205
HCT-15 = tested on: HCT-15
MDA-MB-435 = tested on: MDA-MB-435
A549 = tested on: A549
RPMI-8226 = tested on: RPMI-8226
K562 = tested on: K562
UACC-62 = tested on: UACC-62
SN12C = tested on: SN12C
UACC-257 = tested on: UACC-257
OVCAR-5 = tested on: OVCAR-5
HT-29 = tested on: HT-29

Structure (SMILES)	GI50 (HOP-62)	GI50 (UO-31)	GI50 (SK-MEL-28)	GI50 (SF-539)	GI50 (NCI-H23)	GI50 (TK-10)	GI50 (SK-OV-3)	GI50 (OVCAR-4)	GI50 (MOLT-4)	GI50 (COLO 205)	GI50 (HCT-15) [µM]	GI50 (MDA-MB-435)	GI50 (A549)	GI50 (RPMI-8226)	GI50 (K562)	GI50 (UACC-62)	GI50 (SN12C)	GI50 (UACC-257)	GI50 (OVCAR-5)	GI50 (HT-29)
CCOP1(=O)C=C(Sc2ccc([N+](=O)[O-])cc2[N+](=O)[O-])C(C)(C)O1 (stereo not given)	27.9 µM (inactive)	14.9 µM (inactive)	16.2 µM (inactive)	11.7 µM (inactive)	18.3 µM (inactive)	17.1 µM (inactive)	27.2 µM (inactive)	13.5 µM (inactive)	4.13 µM (inactive)	10.5 µM (inactive)	14.7	11.4 µM (inactive)	19.9 µM (inactive)	5.25 µM (inactive)	2.52 µM (inactive)	11.5 µM (inactive)	10.3 µM (inactive)	12.3 µM (inactive)	21.2 µM (inactive)	8.39 µM (inactive)
COC(=O)c1sc2nc(Nc3ccccc3)/c(=N\c3ccccc3)sc2c1C	49.8 µM (inactive)	> 100 µM (inactive)	> 100 µM (inactive)	51.9 µM (inactive)	94.4 µM (inactive)	30.5 µM (inactive)	32.8 µM (inactive)	64.7 µM (inactive)	> 100 µM (inactive)	> 100 µM (inactive)	> 100	> 100 µM (inactive)	65.8 µM (inactive)	> 100 µM (inactive)	> 100 µM (inactive)	35.6 µM (inactive)	92.9 µM (inactive)	> 100 µM (inactive)	> 100 µM (inactive)	> 100 µM (inactive)
COc1ccc2[nH]c3c(C)c4ccnc(NCCCN(C)CCCN)c4c(C)c3c2c1	0.109 µM (active)	0.207 µM (active)	0.719 µM (active)	0.118 µM (active)	0.202 µM (active)	0.166 µM (active)	0.838 µM (active)	0.0809 µM (active)	0.111 µM (active)	0.0778 µM (active)	0.258	0.195 µM (active)	0.0442 µM (active)	0.281 µM (active)	0.118 µM (active)	0.22 µM (active)	0.0274 µM (active)	0.979 µM (active)	0.176 µM (active)	0.042 µM (active)
O=C(c1ccccc1)c1ccc2nc3n(c2c1)C(c1c(F)cccc1F)SC3 (stereo not given)	8.81 µM (inactive)	5.4 µM (inactive)	22.3 µM (inactive)	10.3 µM (inactive)	9.4 µM (inactive)	22.9 µM (inactive)	4.1 µM (inactive)	7.8 µM (inactive)	2.74 µM (inactive)	4 µM (inactive)	3.16	1.45 µM (inactive)	4.79 µM (inactive)	4.62 µM (inactive)	3.31 µM (inactive)	4.47 µM (inactive)	7.69 µM (inactive)	18.1 µM (inactive)	5.74 µM (inactive)	4.93 µM (inactive)
Cc1ccc(O)c(C(c2cc(C)ccc2O)c2cc([N+](=O)[O-])ccc2O)c1	13.4 µM (inactive)	7.74 µM (inactive)	5.73 µM (inactive)	15.7 µM (inactive)	12.4 µM (inactive)	17.4 µM (inactive)	17.7 µM (inactive)	11.8 µM (inactive)	6.12 µM (inactive)	17.8 µM (inactive)	16.3	15 µM (inactive)	12.1 µM (inactive)	13.7 µM (inactive)	23.1 µM (inactive)	15.9 µM (inactive)	14.7 µM (inactive)	16.6 µM (inactive)	14.3 µM (inactive)	15 µM (inactive)
COc1cccc(/C=N/NC(=O)CSCC(=O)N/N=C/c2cccc(OC)c2OC)c1OC	> 100 µM (inactive)	> 100 µM (inactive)	> 100 µM (inactive)	> 100 µM (inactive)	> 100 µM (inactive)	> 100 µM (inactive)	> 100 µM (inactive)	> 100 µM (inactive)	> 100 µM (inactive)	> 100 µM (inactive)	> 100	> 100 µM (inactive)	> 100 µM (inactive)	> 100 µM (inactive)	> 100 µM (inactive)	> 100 µM (inactive)	> 100 µM (inactive)	> 100 µM (inactive)	> 100 µM (inactive)	> 100 µM (inactive)
C/C(=N\NC(=S)NCc1ccccc1)c1nc2cccnc2[nH]1	6.85 µM (inactive)	1.94 µM (inactive)	14.6 µM (inactive)	5.73 µM (inactive)	12.8 µM (inactive)	15.2 µM (inactive)	10.4 µM (inactive)	16.4 µM (inactive)	3.44 µM (inactive)	14.5 µM (inactive)	4.45	12.4 µM (inactive)	6.38 µM (inactive)	11.5 µM (inactive)	5.35 µM (inactive)	6.53 µM (inactive)	15.7 µM (inactive)	9.62 µM (inactive)	7.23 µM (inactive)	3.48 µM (inactive)
CC(=O)OC1COC(n2nc(/C=C/c3ccc(Cl)cc3)c(=O)n(/N=C/c3ccccc3)c2=S)C(OC(C)=O)C1OC(C)=O (stereo not given)	> 100 µM (inactive)	> 100 µM (inactive)	> 100 µM (inactive)	> 100 µM (inactive)	> 100 µM (inactive)	> 100 µM (inactive)	> 100 µM (inactive)	> 100 µM (inactive)	> 100 µM (inactive)	> 100 µM (inactive)	> 100	> 100 µM (inactive)	> 100 µM (inactive)	> 100 µM (inactive)	> 100 µM (inactive)	> 100 µM (inactive)	> 100 µM (inactive)	> 100 µM (inactive)	> 100 µM (inactive)	> 100 µM (inactive)
Nc1ccn(C=C=CCO)c(=O)n1	> 100 µM (inactive)	> 100 µM (inactive)	> 100 µM (inactive)	> 100 µM (inactive)	> 100 µM (inactive)	> 100 µM (inactive)	> 100 µM (inactive)	> 100 µM (inactive)	5.85 µM (inactive)	> 100 µM (inactive)	> 100	> 100 µM (inactive)	> 100 µM (inactive)	589 µM (inactive)	> 100 µM (inactive)	> 100 µM (inactive)	> 100 µM (inactive)	> 100 µM (inactive)	> 100 µM (inactive)	> 100 µM (inactive)
O=C1c2ccc3c4ccc5c6c(ccc(c7ccc(c2c37)C(=O)N1CCN1CCCCC1)c64)C(=O)N(CCN1CCCCC1)C5=O	> 100 µM (inactive)	> 100 µM (inactive)	> 100 µM (inactive)	> 100 µM (inactive)	> 100 µM (inactive)	> 100 µM (inactive)	> 100 µM (inactive)	> 100 µM (inactive)	> 100 µM (inactive)	> 100 µM (inactive)	> 100	> 100 µM (inactive)	> 100 µM (inactive)	> 100 µM (inactive)	> 100 µM (inactive)	> 100 µM (inactive)	> 100 µM (inactive)	> 100 µM (inactive)	> 100 µM (inactive)	> 100 µM (inactive)
